This note sets out measurements from US9376418B2, “Substituted pyridine spleen tyrosine kinase (SYK) inhibitors” (Merck Sharp & Dohme Corp., priority 2012, dated 2016).

Where only a bound is given, the exact number is not on record here.

This assay has as its target T1, recombinant human GST-SYK (Homo sapiens, UniProt P43405).
T1 construct: purchased Carna Biosciences 08-176
Kind of assay: Homogeneous Time-Resolved Fluorescence (HTRF) assay for the recombinant human Syk enzyme. Format: biochemical. The note with it: HTRF assay, recombinant human GST-SYK; IC50 given as class symbols; read-out: rhSYK Activity. In short, it runs like this: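 HTRF read-out: Europium-anti-phosphotyrosine antibody (2 nM) plus SA-APC (70 nM) in EDTA-containing buffer quenched the reaction, and signal was read after 30 minutes. Kinase step used […], 250 nM biotinylated peptide, 25 μM ATP, 5 mM Mg, 45′ at room temperature.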
(In general: In TR-FRET formats the signal depends on donor and acceptor labels being close together.)
Regarding `Cc1cc(Nc2nccc(C3CC3)n2)cc(-c2cncc(C(O)(CO)CO)c2)c1` [Example 9.74, 2-(5-{3-[(4-cyclopropylpyrimidin-2-yl)amino]-5-methylphenyl}pyridin-3-yl)propane-1,2,3-triol], the IC50 was in the range of 1000 to 10000 nM.
Turning to `Cc1cc(Nc2nccc(C(F)(F)F)n2)cc(-c2ccnc(O)c2)c1` [Example 2.125, 4-(3-methyl-5-{[4-(trifluoromethyl)pyrimidin-2-yl]amino}phenyl)pyridin-2-ol], the IC50 was below 100 nM.
The result for `CC(=O)Nc1cc(Nc2nccc(C(F)(F)F)n2)cc(-c2ccc(NC3CCNC3=O)nc2)c1` (stereo not drawn) [Example 7.3, N-(3-{6-[(2-oxopyrrolidin-3-yl)amino]pyridin-3-yl}-5-{[4-(trifluoromethyl)pyrimidin-2-yl]amino}phenyl)acetamide] reads below 100 nM.
To `Cc1cc(Nc2nccc(C(F)(F)F)n2)cc(-c2ccc(-c3noc(=O)[nH]3)nc2)c1` [Example 18.11] belongs below 100 nM; to `Cc1cc(Nc2nccc(C(F)(F)F)n2)cc(-c2ccc(N(CCC#N)CC(=O)O)nc2)c1` [Example 7.75, N-(2-cyanoethyl)-N-[5-(3-methyl-5-{[4-(trifluoromethyl)pyrimidin-2-yl]amino}phenyl)pyridin-2-yl]glycine], below 100 nM.
On to `Cc1cc(Nc2nccc(C(F)(F)F)n2)cc(-c2ccnc(N3CC(C)NC(C)C3)c2)c1` (stereo not drawn) [Example 15.71, N-{3-[2-(3,5-dimethylpiperazin-1-yl)pyridin-4-yl]-5-methylphenyl}-4-(trifluoromethyl)pyrimidin-2-amine], for which the IC50 is below 100 nM.
To `O=C(O)CCc1ccc(-c2cccc(Nc3nccc(C(F)(F)F)n3)c2)nc1` [Example 2.16, 3-[6-(3-{[4-(trifluoromethyl)pyrimidin-2-yl]amino}phenyl)pyridin-3-yl]propanoic acid] belongs 100 to 1000 nM.
The result for `CC(=O)NCCNc1cc(-c2cc(C)cc(Nc3nccc(C(F)(F)F)n3)c2)ccn1` [Example 15.54, N-(2-{[4-(3-methyl-5-{[4-(trifluoromethyl)pyrimidin-2-yl]amino}phenyl)pyridin-2-yl]amino}ethyl)acetamide] reads below 100 nM.
Take `Cc1cc(Nc2nccc(C(F)(F)F)n2)cc(-c2cc(CCC(=O)O)ccn2)c1` [Example 2.22, 3-[2-(3-methyl-5-{[4-(trifluoromethyl)pyrimidin-2-yl]amino}phenyl)pyridin-4-yl]propanoic acid]: the IC50 was below 100 nM.
To `CNC(=O)C1CCCN1c1ccc(-c2cc(C)cc(Nc3nccc(C(F)(F)F)n3)c2)cn1` (stereo not drawn) [Example 7.65, N-methyl-1-[5-(3-methyl-5-{[4-(trifluoromethyl)pyrimidin-2-yl]amino}phenyl)pyridin-2-yl)prolinamide] belongs 100 to 1000 nM.
To `Cc1cc(Nc2nccc(C(F)(F)F)n2)cc(-c2ccc(CN3CCCC3=O)nc2)c1` [Example 14.1, 1-{[5-(3-Methyl-5-{[4-(trifluoromethyl)pyrimidin-2-yl]amino}phenyl)pyridin-2-yl]methyl}pyrrolidin-2-one] belongs below 100 nM; to `Cc1cc(Nc2nccc(C(F)(F)F)n2)cc(-c2ccc(C(=O)N3CCNC(=O)C3)nc2)c1` [Example 16.4, 4-{[5-(3-Methyl-5-{[4-(trifluoromethyl)pyrimidin-2-yl]amino}phenyl)pyridin-2-yl]carbonyl}piperazin-2-one], below 100 nM; to `Cc1cc(Nc2nccc(C(F)(F)F)n2)cc(-c2ccc(C3(O)CCNC(=O)CC3)nc2)c1` (stereo not drawn) [Example 11.1, 5-Hydroxy-5-[5-(3-methyl-5-{[4-(trifluoromethyl)pyrimidin-2-yl]amino}phenyl)pyridin-2-yl]azepan-2-one], below 100 nM.
To `Cc1cc(Nc2nccc(C(F)(F)F)n2)cc(-c2ccc(N3CCN(C)CC3)nc2)c1` [Example 7.46, N-{3-methyl-5-[6-(4-methylpiperazin-1-yl)pyridin-3-yl]phenyl}-4-(trifluoromethyl)pyrimidin-2-amine] belongs below 100 nM.
Regarding `Cc1cc(Nc2nccc(C(F)(F)F)n2)cc(-c2ccc(C#N)nc2)c1` [Example 2.46, 5-(3-methyl-5-{[4-(trifluoromethyl)pyrimidin-2-yl]amino}phenyl)pyridine-2-carbonitrile], the IC50 is below 100 nM.
For the compound `Cc1cc(Nc2nccc(C(F)(F)F)n2)cc(-c2ccnc(NCc3cnn(C)c3)c2)c1` [Example 15.35, N-[3-methyl-5-(2-{[(1-methyl-1H-pyrazol-4-yl)methyl]amino}pyridin-4-yl)phenyl]-4-(trifluoromethyl)pyrimidin-2-amine], the IC50 was 100 to 1000 nM.
The result for `Cc1cc(Nc2ncc(Cl)c(C)n2)cc(-c2ccc(C(C)(O)C3CCC(C(=O)O)CC3)nc2)c1` (single isomer, unassigned) [Example 9.82, trans-4-[(1R or 1S)-1-(5-{3-[(5-chloro-4-methylpyrimidin-2-yl)amino]-5-methylphenyl}pyridin-2-yl)-1-hydroxyethyl]cyclohexanecarboxylic acid] reads below 100 nM; that for `Cc1cc(Nc2nccc(C(F)(F)F)n2)cc(-c2ccnc(NCCc3cnccn3)c2)c1` [Example 15.33, N-(3-methyl-5-{2-[(2-pyrazin-2-ylethyl)amino]pyridin-4-yl}phenyl)-4-(trifluoromethyl)pyrimidin-2-amine], 100 to 1000 nM.
To `CSCC[C@H](Nc1ccc(-c2cc(C)cc(Nc3nccc(C(F)(F)F)n3)c2)cn1)C(=O)O` [Example 7.95, N-[5-(3-methyl-5-{[4-(trifluoromethyl)pyrimidin-2-yl]amino}phenyl)pyridin-2-yl]-L-methionine] belongs below 100 nM; to `CC(=O)N1CCN(c2ccc(-c3cc(C)cc(Nc4nccc(C(F)(F)F)n4)c3)cn2)CC1` [Example 7.45, N-{3-[6-(4-acetylpiperazin-1-yl)pyridin-3-yl]-5-methylphenyl}-4-(trifluoromethyl)pyrimidin-2-amine], 100 to 1000 nM.
As to `Cc1cc(Nc2nccc(C3CC3)n2)cc(-c2ccc(C(C)(O)[C@H]3CC[C@H](C(=O)O)CC3)nc2)c1` (stereo partly drawn) [Example 9.24, trans-4-[1-(5-{3-[(4-cyclopropylpyrimidin-2-yl)amino]-5-methylphenyl}pyridin-2-yl)-1-hydroxyethyl]cyclohexanecarboxylic acid], the IC50 is below 100 nM.
For `COCC1CCCN1c1cc(-c2cc(C)cc(Nc3nccc(C(F)(F)F)n3)c2)ccn1` (stereo not drawn) [Example 15.69, N-(3-{2-[2-(methoxymethyl)pyrrolidin-1-yl]pyridin-4-yl}-5-methylphenyl)-4-(trifluoromethyl)pyrimidin-2-amine], the IC50 fell in the range of 100 to 1000 nM.
Regarding `Cc1cc(Nc2nccc(C(F)(F)F)n2)cc(-c2ccnc(NC[C@@H](C)O)c2)c1` [Example 15.52, (2R)-1-{[4-(3-methyl-5-{[4-(trifluoromethyl)pyrimidin-2-yl]amino}phenyl)pyridin-2-yl]amino}propan-2-ol], the IC50 was below 100 nM.
As to `Cc1cc(Nc2nccc(C(F)(F)F)n2)cc(-c2ccc(OC3CCOCC3)nc2)c1` [Example 2.61, N-{3-methyl-5-[6-(tetrahydro-2H-pyran-4-yloxy)pyridin-3-yl]phenyl}-4-(trifluoromethyl)pyrimidin-2-amine], the IC50 is 100 to 1000 nM.
To `CCOC(=O)CCc1ccc(-c2cc(C)cc(Nc3nccc(C)n3)c2)nc1` [Example 2.36, ethyl 3-(6-{3-methyl-5-[(4-methylpyrimidin-2-yl)amino]phenyl}pyridin-3-yl)propanoate] belongs 1000 to 10000 nM.
The result for `Nc1cc(Nc2nccc(C(F)(F)F)n2)cc(-c2ccncc2)c1` [Example 6.4, 5-pyridin-4-yl-N-[4-(trifluoromethyl)pyrimidin-2-yl]benzene-1,3-diamine] reads below 100 nM; that for `Cc1cc(Nc2nccc(C(F)(F)F)n2)cc(-c2ccc(N[C@@H]3CCC(=O)NC3)nc2)c1` [Example 7.51, (5R)-5-{[5-(3-methyl-5-{[4-(trifluoromethyl)pyrimidin-2-yl]amino}phenyl)pyridin-2-yl]amino}piperidin-2-one], below 100 nM; that for `Cc1cc(Nc2nccc(C(F)(F)F)n2)cc(-c2ccc(C(F)(F)F)nc2)c1` [Example 4.6, N-{3-methyl-5-[6-(trifluoromethyl)pyridin-3-yl]phenyl}-4-(trifluoromethyl)pyrimidin-2-amine], 100 to 1000 nM.
As to `Cc1cc(Nc2nccc(C(F)(F)F)n2)cc(-c2ccnc(NC3(CO)CCCC3)c2)c1` [Example 15.50, (1-{[4-(3-methyl-5-{[4-(trifluoromethyl)pyrimidin-2-yl]amino}phenyl)pyridin-2-yl]amino}cyclopentyl)methanol], the IC50 was below 100 nM.
To `CNC(=O)CNC(=O)c1ccc(-c2cc(C)cc(Nc3nccc(C(F)(F)F)n3)c2)cn1` [Example 16.63, N-[2-(methylamino)-2-oxoethyl]-5-(3-methyl-5-{[4-(trifluoromethyl)pyrimidin-2-yl]amino}phenyl)pyridine-2-carboxamide] belongs 100 to 1000 nM.
Turning to `CC1(C)CC(O)(c2ccc(-c3cc(F)cc(Nc4nccc(C(F)(F)F)n4)c3)cn2)CCC1C(=O)O` (single isomer, unassigned) [Example 9.4, (1S,4R or 1R,4S)-4-[5-(3-fluoro-5-{[4-(trifluoromethyl)pyrimidin-2-yl]amino}phenyl)pyridin-2-yl]-4-hydroxy-2,2-dimethylcyclohexanecarboxylic acid], the IC50 is below 100 nM.
Consider `Cc1cc(Nc2nccc(C(F)(F)F)n2)cc(-c2ccc(N(C)CCC3OCCO3)nc2)c1` [Example 7.41, N-[3-(6-{[2-(1,3-dioxolan-2-yl)ethyl](methyl)amino}pyridin-3-yl)-5-methylphenyl]-4-(trifluoromethyl)pyrimidin-2-amine], for which the IC50 lay within 100 to 1000 nM.
`Cc1cc(Nc2nccc(C(F)(F)F)n2)cc(-c2cncc(C(C)(O)C(F)(F)F)c2)c1` (stereo not drawn) [Example 9.81, 1,1,1-trifluoro-2-[5-(3-methyl-5-{[4-(trifluoromethyl)pyrimidin-2-yl]amino}phenyl)pyridin-3-yl]propan-2-ol]: the IC50 was below 100 nM.
